Test results from patent US20230165970A1, “COMPOSITIONS AND METHODS FOR THE TREATMENT OF BACTERIAL INFECTIONS” (priority 2017, published 2023).
Values after ≈ are worked out from the molar mass of the structure shown. Read-outs that look alike come from different tables or passages of the source. *1 amine or outer side, *2 acyl side, *3 side chain or, on linkers, in order; H or OH if unused. Where a SMILES comes first, the peptide text is derived from it. Bridges are numbered along the chain shown (N, C = ends). Roman numbers before positions name the chains, in order. [ ]: non-standard residue; d: D form. The star is where a group is joined. X4 = C#CCOCCOCCOCCOCCNC(=O)CN(CC(=O)[*:1])CC(=O)[*:2]; Propargyl(OCH2CH2)4CO = C#CCOCCOCCOCCOCCC(=O)*; X1 = CCCCCC[C@@H](O)[C@H](N[*:1])C(=O)[*:2]; dCha = N[C@H](CC1CCCCC1)C(=O)O; hLeu = CC(C)CC[C@H](N)C(=O)O; X7 = NCCN(NC(=O)[*:2])[*:1]; Nle = CCCC[C@H](N)C(=O)O; Dab = NCC[C@H](N)C(=O)O; azaGly = NNC(=O)O

Experiments:
[1] = system: Ec 25922 64X-1 (COL^R); format: cell-based, Escherichia coli; settings: media CA-MHB
Procedure: (§1) Briefly, stock solutions of all antibacterial agents were prepared fresh in appropriate solvents (i.e. PBS, pH 7.4, DMSO, DI, etc.). Stock concentrations for drug conjugates were made at 12.5× the highest final assay concentration. All were serially diluted 2-fold, 8 or 12 times in a 96-well PCR plate (VWR cat. no. 83007-374). Bacterial cell suspensions generated from Mueller-Hinton agar (MHA) plate cultures were prepared in 0.85% saline and adjusted to ˜0.1 OD600 nm. Next, cell suspensions were diluted 1:200 in RPMI containing 5% Luria Broth (LB) to improve bacterial growth (BD Difco, cat. no. 244620) to a concentration of ˜5×10^5 CFU (colony-forming units)/mL. Due to poor solubility in Mueller-Hinton broth media, drug conjugates were evaluated in RPMI 1640 medium (+) L-glutamine, (+) sodium bicarbonate, pH 7.4 (“RPMI B”; Gibco, cat. no. 11875-085) as has been described as a more physiologically-relevant media for susceptibility testing of antibacterial compounds (1). For the conjugates, 92 μL of each cell suspension in RPMI B were added in the same 96-well plate assay format. […] Compounds were tested against a 14-strain panel comprised of E. coli (Ec), A. baumannii (Ab), P. aeruginosa (Pa), and K. pneumoniae (Kp) that were obtained from ATCC (Ec 25922, Ec 2489, Ab 19606, Pa 27853, Pa PAO1, Kp 43816, Kp 10031), Centers for Disease Control and Prevention (Ec AR0349), BEI Resources (Ab AB5075), Micromyx LLC (Ab 8990, Kp 6951), and Belgian Coordinated Collections of Microorganisms (Pa LES431) or generated in-house (Ec 25922 64X-1). […] E. coli strain ATCC 25922 and P. aeruginosa strain LES431 were run in the presence and absence of 50% heat-inactivated fetal bovine serum (FBS; Sigma, cat. no. F4135-100 mL). Plates were mixed by shaking then incubated at 35° C. overnight (16-20 h).

[2] = system: Ec AR0349 (mcr-1, COL^R); format: cell-based, Escherichia coli; settings: media CA-MHB
Procedure: as §1

[3] = system: Ab 19606 (COLhet^R); format: cell-based, Acinetobacter baumannii; settings: media CA-MHB
Procedure: as §1

[4] = system: Ab 8990 (COL^R); format: cell-based, Acinetobacter baumannii
Procedure: (§2) Briefly, stock solutions of all antibacterial agents were prepared fresh in appropriate solvents (i.e. PBS, pH 7.4, DMSO, DI, etc.). Stock concentrations for drug conjugates were made at 12.5× the highest final assay concentration. All were serially diluted 2-fold, 8 or 12 times in a 96-well PCR plate (VWR cat. no. 83007-374). Bacterial cell suspensions generated from Mueller-Hinton agar (MHA) plate cultures were prepared in 0.85% saline and adjusted to ˜0.1 OD600 nm. […] For the conjugates, 92 μL of each cell suspension in RPMI B were added in the same 96-well plate assay format. […] Compounds were tested against a 14-strain panel comprised of E. coli (Ec), A. baumannii (Ab), P. aeruginosa (Pa), and K. pneumoniae (Kp) that were obtained from ATCC (Ec 25922, Ec 2489, Ab 19606, Pa 27853, Pa PAO1, Kp 43816, Kp 10031), Centers for Disease Control and Prevention (Ec AR0349), BEI Resources (Ab AB5075), Micromyx LLC (Ab 8990, Kp 6951), and Belgian Coordinated Collections of Microorganisms (Pa LES431) or generated in-house (Ec 25922 64X-1). […] E. coli strain ATCC 25922 and P. aeruginosa strain LES431 were run in the presence and absence of 50% heat-inactivated fetal bovine serum (FBS; Sigma, cat. no. F4135-100 mL). Plates were mixed by shaking then incubated at 35° C. overnight (16-20 h).

[5] = system: Ab AB5075; format: cell-based, Acinetobacter baumannii; settings: for MIC in RPMI AB 5075: pH 7.4
Procedure: as §2

[6] = system: Kp 10031; format: cell-based, Klebsiella pneumoniae
Procedure: as §2

[7] = system: Kp 6951 (COL^R); format: cell-based, Klebsiella pneumoniae
Procedure: as §2

[8] = system: Kp 43816; format: cell-based, Klebsiella pneumoniae
Procedure: as §2

[9] = system: Ab AB58705 (COL^R) IpxD, mut. (no LPS); format: cell-based, Acinetobacter baumannii; settings: media CA-MHB
[10] = system: LPS from E. coli O111:B4; experiment: LPS binding/neutralization by Limulus Amebocyte Lysate (LAL) assay; format: biochemical; settings: LPS 1-10,000 ng/mL, test article 0.25-10 μM; sum of AUCs relative to maximal AUC (Table 15)
Procedure: The LAL assay (Charles River) was used to determine the binding affinity of test articles to LPS.
(§3) For the assay, 25 μL purified LPS from E. coli O111:1B4 (Sigma) at doses ranging from 1-10,000 ng/mL were incubated with 25 μL of test article at concentrations ranging from 0.25-10 NM. After 5 min incubation at 37° C., 50 μL of LAL reagent, which reacts with lipid A portion from LPS, was added to corresponding wells. After 15 min, absorbance at 405 nm was read on EnSpire plate reader (Perkin Elmer). The % LPS neutralization is calculated relative to a PBS control (background) and LPS control at each concentration (positive control).
LPS neutralization=(1−(absorbance test article−PBS with LAL reagent)/(absorbance no test article−PBS with LAL reagent))×100
To obtain a single value of LPS neutralization for each test article, the area under the curve (AUC) for dose-response of test articles from […] for each LPS concentration was calculated using Prism 7 software. The % LPS neutralization is the sum of the AUCs for each LPS concentration determined relative to the maximal AUC achievable×100.
as §3, with “O111:B4” for “O111:1B4”, “μM.” for “NM.”

[11] = system: Ec 2469; format: cell-based, Escherichia coli
Procedure: as §2

[12] = system: Ec 25922; format: cell-based, Escherichia coli; settings: for MIC in RPMI EC 25922: pH 7.4
Procedure: as §2

[13] = system: Pa 27853; format: cell-based, Pseudomonas aeruginosa
Procedure: as §2

[14] = system: Pa LES431; format: cell-based, Pseudomonas aeruginosa
Procedure: as §2

[15] = system: Pa PAO1; format: cell-based, Pseudomonas aeruginosa; settings: for MIC: PAO1; for MIC in RPMI PA 01: PAO1, pH 7.4
Procedure: as §2

[16] = system: Sa RN; format: cell-based
[17] = system: E. coli ATCC 25922; format: cell-based
Procedure: (§4) Overnight stationary-phase cultures were centrifuged at 3,500×g for 10 min at room temperature and resuspended in 1×PBS to an optical density at 600 nm (OD600) of 0.4 (1×10^8 colony forming units [CFU]/ml) in RPMI with L-glutamine and phenol red (Life Technologies). Bacteria were diluted 1:25 in RPMI ([…]) and 10 ul added to wells of a non-binding 96-well plate (Corning 3641) containing 80 ul of 50% hirudin anti-coagulated blood (complement active) in RPMI. […] MBC was defined as the minimum conjugate concentration required for bacterial clearance (Table 8A and Table 8B). An untreated growth control (40% blood, 0 ug/ml conjugate) was included in all assays as a growth comparator.
(§5) MBC was defined as the minimum compound concentration required for complete bacterial clearance (Table 18).
(§6) In most cases, 2-4 fold improvements in antibacterial activity for the conjugates are observed in the presence of complement active human blood.

[18] = system: A. baumannii AB5075; format: cell-based
Procedure: as §4, §5, §6

[19] = system: P. aeruginosa PAO1; format: cell-based
Procedure: as §4, §5, §6

SMILES	MIC [1] [µg/mL]	MIC [2] [µg/mL]	MIC [3] [µg/mL]	MIC ([4]; Ab 8990 (COL^R), media CA-MHB) [µg/mL]	MIC [5] [µg/mL]	MIC [6] [µg/mL]	MIC ([7]; Kp 6951 (COL^R), media CA-MHB) [µg/mL]	MIC [8] [µg/mL]	MIC [9] [µg/mL]	MIC [11] [µg/mL]	MIC [12] [µg/mL]	MIC [13] [µg/mL]	MIC [14] [µg/mL]	MIC [15] [µg/mL]	MIC [16] [µg/mL]	MIC in RPMI AB 5075 [5] [µg/mL]	MBC in blood EC 25922 [17] [µg/mL]	MBC in blood AB 5075 [18] [µg/mL]	MBC in blood PA 01 [19] [µg/mL]	MIC in RPMI EC 25922 [12] [µg/mL]	other results
C#CCOCCOCCOCCOCCC(=O)N[C@@H](CCC(C)C)C(=O)N[C@@H](CCN)C(=O)N[C@H](C(=O)N(CCN)NC(=O)N[C@H]1CCNC(=O)[C@H]([C@@H](C)O)NC(=O)[C@H](CCN)NC(=O)[C@H](CCN)NC(=O)[C@H](CC(C)C)NC(=O)[C@@H](Cc2ccccc2)NC(=O)[C@H](CCN)NC1=O)[C@@H](C)O [Int-126] ({Propargyl(OCH2CH2)4CO}-[hLeu][Dab]T[X7][Dab][Dab][dF]L[Dab][Dab]T; lactam 5-C)	64 (≈ 44.6 µM)	8 (≈ 5.58 µM)	4 (≈ 2.79 µM)	>128	2 (≈ 1.39 µM)	1 (≈ 0.697 µM)	>128	1 (≈ 0.697 µM)	64 (≈ 44.6 µM)	0.5 (≈ 0.349 µM)	1 (≈ 0.697 µM)	2 (≈ 1.39 µM)	4 (≈ 2.79 µM)	2 (≈ 1.39 µM)	>128						% LPS neutralization [10]: 19.7%
C#CCOCCOCCOCCOCCC(=O)Nc1nc(C)c(C(=O)N[C@@H](CCCC)C(=O)C[C@@H](CCN)C(=O)N[C@H](C(=O)NC(CCCN)C(=O)N[C@H]2CCNC(=O)[C@H]([C@@H](C)O)NC(=O)[C@H](CCN)NC(=O)[C@H](CCN)NC(=O)[C@H](CC(C)C)CC(=O)[C@@H](Cc3ccccc3)NC(=O)[C@H](CCN)CC2=O)[C@@H](C)O)s1 (stereo partly shown) [Int-125]	64 (≈ 40.8 µM)	16 (≈ 10.2 µM)	4 (≈ 2.55 µM)	>128	2 (≈ 1.27 µM)	1 (≈ 0.637 µM)	>128	1 (≈ 0.637 µM)	32 (≈ 20.4 µM)	1 (≈ 0.637 µM)	1 (≈ 0.637 µM)	2 (≈ 1.27 µM)	1 (≈ 0.637 µM)	2 (≈ 1.27 µM)	>128	1.88 (≈ 1.2 µM)	0.05 (≈ 0.0318 µM)	0.1 (≈ 0.0637 µM)	0.2 (≈ 0.127 µM)	0.94 (≈ 0.599 µM)	MIC in RPMI PA 01 [15]: 3.76 µg/mL (≈ 2.4 µM)
C#CCOCCOCCOCCOCCNC(=O)CN(CC(=O)N[C@@H](CCCC)C(=O)N[C@@H](CCN)C(=O)N[C@H](C(=O)NNC(=O)N[C@H]1CCNC(=O)[C@H]([C@@H](C)O)NC(=O)[C@H](CCN)NC(=O)[C@H](CCN)NC(=O)[C@H](CC(C)C)NC(=O)[C@@H](CC2CCCCC2)NC(=O)[C@H](CCN)NC1=O)[C@H](O)CCCCCC)CC(=O)N[C@@H](CCCC)C(=O)N[C@@H](CCN)C(=O)N[C@H](C(=O)NNC(=O)N[C@H]1CCNC(=O)[C@H]([C@@H](C)O)NC(=O)[C@H](CCN)NC(=O)[C@H](CCN)NC(=O)[C@H](CC(C)C)NC(=O)[C@@H](CC2CCCCC2)NC(=O)[C@H](CCN)NC1=O)[C@H](O)CCCCCC [Int-117] (I: [Nle][Dab][X1][azaGly][Dab][Dab][dCha]L[Dab][Dab]T / II: [Nle][Dab][X1][azaGly][Dab][Dab][dCha]L[Dab][Dab]T; lactam I:5-I:C, II:5-II:C; linker I:N-II:N via X4)	8 (≈ 2.87 µM)	8 (≈ 2.87 µM)	8 (≈ 2.87 µM)		8 (≈ 2.87 µM)	8 (≈ 2.87 µM)		8 (≈ 2.87 µM)	8 (≈ 2.87 µM)	8 (≈ 2.87 µM)	8 (≈ 2.87 µM)	8 (≈ 2.87 µM)	4 (≈ 1.43 µM)	16 (≈ 5.74 µM)	16 (≈ 5.74 µM)	1.08 (≈ 0.387 µM)	>0.2	>0.2	>0.2	1.08 (≈ 0.387 µM)	MIC [4]: 8 µg/mL (≈ 2.87 µM); MIC [7]: 16 µg/mL (≈ 5.74 µM); MIC in RPMI PA 01 [15]: 2.16 µg/mL (≈ 0.774 µM)
